This passage reports IC50 and inhibition results from ChEMBL document CHEMBL4507328, “Data for DCP probe BAY-390” (2021).

In test [1] the target is Transient receptor potential cation channel subfamily A member 1 (Homo sapiens, UniProt O75762). Briefly: FLIPR Ca2+ assay (human […]).
Test [2] concerns the target Transient receptor potential cation channel subfamily A member 1 (Rattus norvegicus, UniProt Q6RI86). Briefly: FLIPR Ca2+ assay (rat TRPA1).
The target in test [3] is Short transient receptor potential channel 5 (Homo sapiens, UniProt Q9UL62). Briefly: TRP selectivity screen (TRPC5).
For test [4], the target named is Short transient receptor potential channel 6 (Homo sapiens, UniProt Q9Y210). Nature of the test: TRP selectivity screen (TRPC6).
The target of test [5] is Voltage-dependent T-type calcium channel subunit alpha-1H (Homo sapiens, UniProt O95180). Nature of the test: Selectivity screen (CACNA1H).
In test [6] the target is 5-hydroxytryptamine receptor 2A (Homo sapiens, UniProt P28223). The conditions noted are these: Compound concentration 10.0 uM.
The target in test [7] is T1, 5-hydroxytryptamine receptor 2C (Homo sapiens) (UniProt P28335).
T1 sequence (whole entry): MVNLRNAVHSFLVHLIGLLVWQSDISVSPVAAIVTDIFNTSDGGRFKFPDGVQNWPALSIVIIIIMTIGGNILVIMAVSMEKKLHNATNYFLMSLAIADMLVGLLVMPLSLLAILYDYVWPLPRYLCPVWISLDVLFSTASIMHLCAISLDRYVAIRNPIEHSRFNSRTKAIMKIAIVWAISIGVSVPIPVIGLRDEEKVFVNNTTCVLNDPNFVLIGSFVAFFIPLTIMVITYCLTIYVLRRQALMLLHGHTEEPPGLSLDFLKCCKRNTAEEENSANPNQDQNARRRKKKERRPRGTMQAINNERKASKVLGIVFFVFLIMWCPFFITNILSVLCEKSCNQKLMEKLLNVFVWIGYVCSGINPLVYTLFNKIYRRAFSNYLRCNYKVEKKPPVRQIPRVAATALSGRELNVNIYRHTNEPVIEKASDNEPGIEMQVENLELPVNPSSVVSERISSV
Particulars: Compound concentration 10.0 uM.

Test [8] concerns the target D(4) dopamine receptor (Homo sapiens) (UniProt P21917). The conditions noted are these: Compound concentration 10.0 uM.
For test [9], the target named is Sodium-dependent serotonin transporter (Homo sapiens) (UniProt P31645). Particulars: Compound concentration 10.0 uM.
The target of test [10] is Delta-type opioid receptor (Homo sapiens) (UniProt P41143). Particulars: Compound concentration 10.0 uM.
Another test concerns the target Histamine H2 receptor (Homo sapiens, UniProt P25021). Particulars: Compound concentration 10.0 uM.
The target in test [11] is T2, Alpha-1A adrenergic receptor (Homo sapiens) (UniProt P35348).
T2 sequence (whole entry): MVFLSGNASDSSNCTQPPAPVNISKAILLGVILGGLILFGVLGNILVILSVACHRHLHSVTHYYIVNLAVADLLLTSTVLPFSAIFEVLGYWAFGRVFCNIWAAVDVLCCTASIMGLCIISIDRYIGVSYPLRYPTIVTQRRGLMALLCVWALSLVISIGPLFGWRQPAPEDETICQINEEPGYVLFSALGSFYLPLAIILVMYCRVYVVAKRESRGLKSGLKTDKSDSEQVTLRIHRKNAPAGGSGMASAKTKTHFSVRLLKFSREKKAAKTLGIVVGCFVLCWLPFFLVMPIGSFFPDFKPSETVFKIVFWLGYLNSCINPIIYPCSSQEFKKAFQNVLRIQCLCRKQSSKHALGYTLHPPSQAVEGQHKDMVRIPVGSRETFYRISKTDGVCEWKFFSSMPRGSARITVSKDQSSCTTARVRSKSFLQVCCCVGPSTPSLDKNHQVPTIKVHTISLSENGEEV
The conditions noted are these: Compound concentration 10.0 uM.

The target of test [12] is Alpha-1B adrenergic receptor (Homo sapiens) (UniProt P35368). Particulars: Compound concentration 10.0 uM.
Test [13] concerns the target Beta-1 adrenergic receptor (Homo sapiens) (UniProt P08588). The conditions noted are these: Compound concentration 10.0 uM.
The target in test [14] is Beta-2 adrenergic receptor (Homo sapiens) (UniProt P07550). The conditions noted are these: Compound concentration 10.0 uM.
The target in test [15] is T3, Muscarinic acetylcholine receptor M1 (Homo sapiens) (UniProt P11229).
T3 sequence (whole entry): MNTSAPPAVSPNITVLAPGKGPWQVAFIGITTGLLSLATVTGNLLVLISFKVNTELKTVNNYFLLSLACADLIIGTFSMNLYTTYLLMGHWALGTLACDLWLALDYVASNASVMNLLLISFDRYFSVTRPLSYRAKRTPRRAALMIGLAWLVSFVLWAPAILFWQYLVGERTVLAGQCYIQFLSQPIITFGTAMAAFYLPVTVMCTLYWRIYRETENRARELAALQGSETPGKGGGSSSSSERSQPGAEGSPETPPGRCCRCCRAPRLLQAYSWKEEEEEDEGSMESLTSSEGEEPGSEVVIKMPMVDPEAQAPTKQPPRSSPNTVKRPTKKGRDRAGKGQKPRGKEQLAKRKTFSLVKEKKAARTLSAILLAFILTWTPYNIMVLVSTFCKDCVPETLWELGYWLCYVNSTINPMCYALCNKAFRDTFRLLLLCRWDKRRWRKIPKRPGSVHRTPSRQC
The conditions noted are these: Compound concentration 10.0 uM.

Test [16] addresses Muscarinic acetylcholine receptor M5 (Homo sapiens) (UniProt P08912). The conditions noted are these: Compound concentration 10.0 uM.
Test [17] has as its target GABA-A receptor; anion channel (Rattus norvegicus) (UniProt O09028+P15431+P18506+P18508+P19969+P20236+P23574+P23576+P28471+P28473+P30191+P62813+P63079+P63138+Q91ZM7+Q9ES14). The conditions noted are these: Compound concentration 10.0 uM.
For the next test, the species on record is Rattus norvegicus. The conditions noted are these: Compound concentration 10.0 uM.
The target in test [18] is Adenosine receptor A2a (Homo sapiens) (UniProt P29274). Particulars: Compound concentration 10.0 uM.
Test [19] addresses D(2) dopamine receptor (Homo sapiens) (UniProt P14416). The conditions noted are these: Compound concentration 10.0 uM.
In test [20] the target is Endothelin-1 receptor (Homo sapiens) (UniProt P25101). The conditions noted are these: Compound concentration 10.0 uM.
Test [21] has as its target Histamine H3 receptor (Homo sapiens) (UniProt Q9Y5N1). Particulars: Compound concentration 10.0 uM.

The structures appear in SMILES notation. Activity calls are given as the source filed them. The rule behind the calls is not given here. A value given as a limit tells only on which side of the number the result lay.

As usually defined, the IC50 is the concentration that inhibits the measured activity by half. The term inhibition denotes the relative decrease from the control value, in per cent.

Chain of Alpha-1B adrenergic receptor (Homo sapiens) (P35368 whole entry): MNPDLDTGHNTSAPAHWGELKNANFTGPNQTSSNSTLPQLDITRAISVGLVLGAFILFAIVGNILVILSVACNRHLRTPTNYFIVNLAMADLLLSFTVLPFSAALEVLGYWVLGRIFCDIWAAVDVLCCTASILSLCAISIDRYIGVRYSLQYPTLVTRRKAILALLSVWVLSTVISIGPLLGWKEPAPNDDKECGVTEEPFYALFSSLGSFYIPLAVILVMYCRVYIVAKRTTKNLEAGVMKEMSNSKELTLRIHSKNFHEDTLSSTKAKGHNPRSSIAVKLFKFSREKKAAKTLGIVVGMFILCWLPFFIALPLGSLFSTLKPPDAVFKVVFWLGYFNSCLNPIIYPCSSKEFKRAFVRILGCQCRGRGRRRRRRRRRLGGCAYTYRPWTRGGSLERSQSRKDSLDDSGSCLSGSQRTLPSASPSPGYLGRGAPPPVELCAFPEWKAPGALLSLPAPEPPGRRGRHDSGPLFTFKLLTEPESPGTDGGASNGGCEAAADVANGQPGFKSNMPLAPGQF
Chain of Transient receptor potential cation channel subfamily A member 1 (Homo sapiens, UniProt O75762) (O75762 whole entry): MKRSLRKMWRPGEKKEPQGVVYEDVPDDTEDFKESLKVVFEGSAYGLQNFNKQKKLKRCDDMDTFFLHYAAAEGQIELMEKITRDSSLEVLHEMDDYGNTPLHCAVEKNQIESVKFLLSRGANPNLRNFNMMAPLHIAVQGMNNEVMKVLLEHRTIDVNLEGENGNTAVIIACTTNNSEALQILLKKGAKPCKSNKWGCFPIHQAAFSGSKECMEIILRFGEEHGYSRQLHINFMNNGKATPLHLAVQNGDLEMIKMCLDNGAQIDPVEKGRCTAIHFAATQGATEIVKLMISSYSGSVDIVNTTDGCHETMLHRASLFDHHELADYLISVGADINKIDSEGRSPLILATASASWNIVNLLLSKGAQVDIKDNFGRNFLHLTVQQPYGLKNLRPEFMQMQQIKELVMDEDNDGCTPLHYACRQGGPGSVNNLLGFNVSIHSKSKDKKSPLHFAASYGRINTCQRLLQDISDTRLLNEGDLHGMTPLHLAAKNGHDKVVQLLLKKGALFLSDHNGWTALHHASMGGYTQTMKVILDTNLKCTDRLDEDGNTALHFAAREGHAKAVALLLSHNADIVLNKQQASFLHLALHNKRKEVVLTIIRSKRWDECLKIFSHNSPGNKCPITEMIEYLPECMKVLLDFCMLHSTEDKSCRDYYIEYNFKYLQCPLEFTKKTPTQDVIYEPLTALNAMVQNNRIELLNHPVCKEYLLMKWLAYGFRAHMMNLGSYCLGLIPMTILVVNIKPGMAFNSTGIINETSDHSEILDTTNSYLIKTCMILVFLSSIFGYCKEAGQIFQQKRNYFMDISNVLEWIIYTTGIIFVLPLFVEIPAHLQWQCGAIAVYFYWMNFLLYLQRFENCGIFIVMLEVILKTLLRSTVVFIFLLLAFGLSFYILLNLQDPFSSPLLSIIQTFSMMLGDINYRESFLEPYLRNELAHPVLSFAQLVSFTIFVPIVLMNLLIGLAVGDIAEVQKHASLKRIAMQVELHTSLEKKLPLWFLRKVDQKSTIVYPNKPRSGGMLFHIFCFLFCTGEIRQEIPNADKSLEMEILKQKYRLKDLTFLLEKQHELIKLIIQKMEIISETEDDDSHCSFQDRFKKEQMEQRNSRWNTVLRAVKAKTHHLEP
Chain of Histamine H2 receptor (P25021 whole entry): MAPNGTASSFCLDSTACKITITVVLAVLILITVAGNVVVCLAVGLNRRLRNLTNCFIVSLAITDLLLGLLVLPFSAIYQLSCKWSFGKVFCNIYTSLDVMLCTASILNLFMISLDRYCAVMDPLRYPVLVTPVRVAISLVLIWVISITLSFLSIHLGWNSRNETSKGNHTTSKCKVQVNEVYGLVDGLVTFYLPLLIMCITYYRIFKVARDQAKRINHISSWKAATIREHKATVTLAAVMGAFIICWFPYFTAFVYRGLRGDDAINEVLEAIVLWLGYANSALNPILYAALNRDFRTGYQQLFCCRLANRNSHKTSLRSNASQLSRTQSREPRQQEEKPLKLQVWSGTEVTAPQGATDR
Chain of Short transient receptor potential channel 5 (Q9UL62 whole entry): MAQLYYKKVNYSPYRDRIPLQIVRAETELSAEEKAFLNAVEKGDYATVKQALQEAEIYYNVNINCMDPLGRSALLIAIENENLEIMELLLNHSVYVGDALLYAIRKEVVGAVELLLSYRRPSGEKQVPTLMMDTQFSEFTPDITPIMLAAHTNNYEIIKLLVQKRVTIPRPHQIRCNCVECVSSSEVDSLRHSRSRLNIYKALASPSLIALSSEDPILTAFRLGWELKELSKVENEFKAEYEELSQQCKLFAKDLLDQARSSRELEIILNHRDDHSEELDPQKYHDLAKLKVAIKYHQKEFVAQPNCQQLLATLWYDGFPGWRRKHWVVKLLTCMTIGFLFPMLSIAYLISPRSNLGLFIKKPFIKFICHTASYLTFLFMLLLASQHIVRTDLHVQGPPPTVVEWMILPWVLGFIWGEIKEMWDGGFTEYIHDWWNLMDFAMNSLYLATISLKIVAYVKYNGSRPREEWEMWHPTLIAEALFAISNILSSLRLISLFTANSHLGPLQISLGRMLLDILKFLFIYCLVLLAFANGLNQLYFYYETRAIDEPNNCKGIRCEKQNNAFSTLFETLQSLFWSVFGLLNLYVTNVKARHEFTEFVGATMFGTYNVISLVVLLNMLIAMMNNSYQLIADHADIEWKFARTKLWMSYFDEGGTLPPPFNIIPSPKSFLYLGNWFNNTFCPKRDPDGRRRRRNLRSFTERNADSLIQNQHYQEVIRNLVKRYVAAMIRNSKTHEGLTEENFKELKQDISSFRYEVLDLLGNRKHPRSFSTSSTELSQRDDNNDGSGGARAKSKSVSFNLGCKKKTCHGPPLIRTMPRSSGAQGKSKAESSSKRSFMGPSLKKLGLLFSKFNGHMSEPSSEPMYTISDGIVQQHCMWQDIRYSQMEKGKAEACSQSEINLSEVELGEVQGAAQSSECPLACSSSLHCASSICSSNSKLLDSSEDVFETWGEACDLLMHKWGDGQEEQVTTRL
Chain of Muscarinic acetylcholine receptor M5 (Homo sapiens) (P08912 whole entry): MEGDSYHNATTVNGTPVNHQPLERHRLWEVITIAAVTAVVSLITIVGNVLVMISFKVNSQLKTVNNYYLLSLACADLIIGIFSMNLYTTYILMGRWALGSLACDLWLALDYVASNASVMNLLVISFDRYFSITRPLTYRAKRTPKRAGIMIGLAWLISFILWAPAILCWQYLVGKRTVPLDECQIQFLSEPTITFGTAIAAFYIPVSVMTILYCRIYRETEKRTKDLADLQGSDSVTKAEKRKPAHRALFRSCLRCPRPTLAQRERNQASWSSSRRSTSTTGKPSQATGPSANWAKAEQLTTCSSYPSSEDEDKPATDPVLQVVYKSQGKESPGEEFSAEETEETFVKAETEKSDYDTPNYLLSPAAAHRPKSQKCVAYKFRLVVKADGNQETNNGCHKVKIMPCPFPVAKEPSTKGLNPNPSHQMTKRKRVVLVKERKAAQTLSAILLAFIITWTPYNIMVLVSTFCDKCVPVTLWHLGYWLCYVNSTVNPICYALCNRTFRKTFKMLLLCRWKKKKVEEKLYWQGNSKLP
Chain of Short transient receptor potential channel 6 (Q9Y210 whole entry): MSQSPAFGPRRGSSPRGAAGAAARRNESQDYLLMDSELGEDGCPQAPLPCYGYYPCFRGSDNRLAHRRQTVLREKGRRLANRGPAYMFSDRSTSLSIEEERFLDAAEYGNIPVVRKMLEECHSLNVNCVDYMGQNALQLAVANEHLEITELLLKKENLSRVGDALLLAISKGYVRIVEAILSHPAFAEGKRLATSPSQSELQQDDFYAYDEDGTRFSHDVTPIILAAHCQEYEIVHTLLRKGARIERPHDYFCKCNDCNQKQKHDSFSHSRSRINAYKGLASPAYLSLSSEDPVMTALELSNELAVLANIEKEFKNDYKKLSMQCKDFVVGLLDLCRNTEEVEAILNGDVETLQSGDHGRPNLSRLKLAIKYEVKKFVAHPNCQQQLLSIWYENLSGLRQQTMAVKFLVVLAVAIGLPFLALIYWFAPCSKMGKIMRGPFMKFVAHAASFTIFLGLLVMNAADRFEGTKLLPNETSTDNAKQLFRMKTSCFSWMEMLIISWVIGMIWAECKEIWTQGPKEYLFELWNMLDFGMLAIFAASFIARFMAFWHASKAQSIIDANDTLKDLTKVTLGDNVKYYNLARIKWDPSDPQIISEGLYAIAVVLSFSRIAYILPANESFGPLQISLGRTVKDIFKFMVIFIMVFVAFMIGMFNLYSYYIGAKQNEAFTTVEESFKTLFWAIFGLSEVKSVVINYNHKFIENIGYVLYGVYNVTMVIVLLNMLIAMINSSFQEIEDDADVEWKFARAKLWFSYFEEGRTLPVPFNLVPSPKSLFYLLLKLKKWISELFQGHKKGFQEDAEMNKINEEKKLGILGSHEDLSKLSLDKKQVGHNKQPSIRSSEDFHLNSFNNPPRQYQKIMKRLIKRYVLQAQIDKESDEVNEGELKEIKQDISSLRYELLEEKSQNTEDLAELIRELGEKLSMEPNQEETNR
Chain of 5-hydroxytryptamine receptor 2A (P28223 whole entry): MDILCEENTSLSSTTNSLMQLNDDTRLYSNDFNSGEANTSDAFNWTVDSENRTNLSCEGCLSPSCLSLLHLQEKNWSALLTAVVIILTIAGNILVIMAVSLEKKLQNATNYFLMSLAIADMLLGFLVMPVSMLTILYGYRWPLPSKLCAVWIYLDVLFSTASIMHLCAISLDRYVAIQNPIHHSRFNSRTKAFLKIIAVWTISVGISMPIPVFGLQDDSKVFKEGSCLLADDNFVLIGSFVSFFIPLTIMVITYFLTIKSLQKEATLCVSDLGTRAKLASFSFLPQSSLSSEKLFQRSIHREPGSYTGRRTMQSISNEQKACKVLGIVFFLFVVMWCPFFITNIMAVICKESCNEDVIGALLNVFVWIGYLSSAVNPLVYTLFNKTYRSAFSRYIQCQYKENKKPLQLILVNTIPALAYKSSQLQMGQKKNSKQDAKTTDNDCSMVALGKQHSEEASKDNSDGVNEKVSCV

With `O[C@]1(C(F)(F)F)CCCC[C@H]1Nc1ccc(F)cc1` [BAY-390], the IC50 in [1] is 0.016 µM (active); in test [2] it was 0.063 µM (active); in test [3], 5.6 µM (not active); in test [4] it was > 25 µM (not active); in test [5] it was > 30 µM (not active). For the same compound, the inhibition in test [6] is 69.4%; in test [7] it was 23.4%; in test [8] it was -4.08%; in test [9], -0.01%; in test [10] it was 21.4%; at Histamine H2 receptor, -1.07%. The inhibition is -8.22% in test [11]; 8.7% in test [12]; 20.2% in [13]; 7.94% in test [14]; 8.3% in test [15]; 10.4% in test [16]. The inhibition in test [17] is 4.57%; in the test filed under Rattus norvegicus, 2.79%; in test [18], 3%; in test [19], 13%; in test [20], 7%; in test [21], -4%.

On to `COc1cc(N[C@@H]2CCCC[C@]2(O)C(F)(F)F)ccc1F` [BAY-9897], for which the IC50 in test [1] was > 25 µM (not active); in test [2], > 25 µM (not active); in [3], 10 µM (not active); in test [4] it was > 30 µM (not active). Moreover, the inhibition was 1% in test [6]; -0.76% in [7]; 6.32% in test [8]; 15.6% in [9]; 14.4% in [10]; 89% on Histamine H2 receptor. Further, the inhibition in [11] was 2.69%; in test [12] it was 0.41%; in test [13], -0.24%; in [14], 22.2%; in [15], 18.5%; in test [16] it was -5.5%. For the same compound, the inhibition in test [17] was 5.42%; in the test listed under Rattus norvegicus it was -1.71%.
